{"source": "paper PMC8296708", "about": "“The pan HDAC inhibitor Givinostat improves muscle function and histological parameters in two Duchenne muscular dystrophy murine models expressing different haplotypes of the LTBP4 gene” (Skeletal Muscle, 2021)", "test_system": "plasma miRNA of mdx mice", "assay": "Whole-genome plasma miRNA expression profiling (small RNA sequencing) in mdx mice", "format": "in vivo, mouse (C57BL/10ScSn-Dmd^mdx/J)", "conditions": "Givinostat 37.5 mg/kg vs vehicle", "experimental": "Blood samples were taken from the retro-orbital plexus of mice maintained under isoflurane anesthesia. Blood was placed in tubes containing 50 μL (for 1 mL of total blood) of EDTA ([…]) and then it was centrifuged at 13,300 rpm at + 4 °C for 10 min. Plasma was separated (400–500 μL) and immediately frozen in dry ice and stored at − 80 °C until analysis.\nThirteen mouse plasma samples (naive wt, n = 3; naive mdx, n = 3; vehicle, n = 4; Givinostat 37.5 mg/kg, n = 3) were delivered to Biogazelle in dry ice.\nRNA was isolated using the miRNeasy Serum/Plasma Kit (Qiagen) following the manufacturer’s instructions.\nLibraries for small RNA sequencing were prepared using the NEBNext small RNA library prep kit (New England Biolabs) according to the manufacturer’s instructions. […] Finally, the resulting small RNA pools were concentrated via ethanol precipitation and quantified using the Qubit 2.0 fluorometer (Thermo Fisher Scientific) prior to sequencing with read length of 75 bp on a NextSeq 500 sequencer (Illumina).\nSequencing reads were filtered based on stringent read quality control. After adapter trimming with Trimmomatic, reads were collapsed and mapped to the reference genome (GRCm38) using Bowtie. Reads up to 25 nucleotides are mapped with no mismatches, while longer reads (mainly from RNA species other than miRNAs) are mapped allowing a maximum of 2 mismatches. […]"}
{"smiles": "CCN(CC)Cc1ccc2cc(COC(=O)Nc3ccc(C(=O)NO)cc3)ccc2c1", "note": "[Givinostat]", "values": [{"measurement": "miR-92b-3p in plasma, FC", "setting": "T16, significant upregulation", "value": 2.130}, {"measurement": "miR-449a-5p in plasma, FC", "setting": "T16, significantly upregulated", "value": 4.388}]}
